Earlier results in paper PMC6962532 (Journal of the American Chemical Society, 2020).

Key:
[1] = system: AgrC-II; conditions: cross-group interaction
[2] = system: AgrC-III; conditions: cross-group interaction
[3] = system: AgrC-I; conditions: for activity of native AIP signal on AgrC-I: cross-group interaction

## D-S-V-(C-A-S-Y-F) [AIP-I]
[1]
  activity of native AIP signal on AgrC-II: inhibits
[2]
  activity of native AIP signal on AgrC-III: inhibits

## A-S-A-(C-A-A-Y-F) [AAA]
[3]; AgrC-I, in words
  IC50 value: single-digit nanomolar

## N-A-A-K-Y-N-P-(C-A-S-Y-L) [AIP-III]
[3]
  activity of native AIP signal on AgrC-I: inhibit

## D-S-A-(C-A-S-Y-F) [AIP-I V3A]
[3]; AgrC-I
  antagonism potency relative to t-AIP-I: approximately four-fold more potent

## N-A-S-K-Y-N-P-(C-S-N-Y-L) [AIP-II]
[3]
  activity of native AIP signal on AgrC-I: inhibit
